Consider 90 compounds from a melting point compilation (Tetko et al.; mined from patent text by program, amines drawn as free bases though some values may be those of a salt).

`Cc1cc(-c2ccc(S(C)(=O)=O)cc2)n(-c2ccc(-c3ccoc3)cc2)c1` displayed a melting point of 154 to 156 °C.

`CCOC1(C)OCC(O)O1` (stereo not given) came in with a melting point of 86 to 87 °C.

For `CN1c2c(oc(=O)n(-c3ncccn3)c2=O)-c2ccccc2S1(=O)=O`, the melting point lay within 282 to 284 °C.

Consider `CCOC(=O)c1cc2c(O)nncc2nc1Nc1ccccc1`, for which the melting point was 257 to 260 °C.

In the case of `CCOC(=O)COC1CCC2C3CCC4N=CCCC4(C)C3CCC12C` (stereo not given), the melting point was in the range of 170 to 172 °C.

Regarding `CN(C)Cc1cnc2n1-c1ccc(Cl)cc1C(c1ccccc1)=NC2`, the melting point fell in the range of 181 to 182 °C.

The compound `COCCCOc1cc(CC(CC2C(OC(=O)OC(C)(C)C)CC(C(C)(C)O)C(=O)N2C(=O)OC(C)(C)C)C(C)C)ccc1OC` (stereo not given) came in with a melting point of 118 to 119 °C.

The compound `O=C1O[C@@H](CO)CN1c1ccc(I)c(F)c1` had a melting point of 116 to 117 °C.

On to `Cn1c(-c2ccc(-c3ccco3)cc2)cnc1[C@H](Cc1ccccn1)N(C=O)c1cc2cc(Cl)ccc2o1`, for which the melting point lay in the range of 144 to 146 °C.

`Cc1c(-c2ccccc2)on(CC(O)CCl)c1=O` (stereo not given) yielded a melting point of 82 to 83 °C.

`FC(F)(F)c1nncn1-c1ccccc1` registered a melting point of 80 °C.

Turning to `COC(=O)[C@H](CC1=CCC(N)(O)C=C1)NC(=O)c1ccccc1` (stereo not given in full), the melting point turned out to be 170 °C.

Compound `O=C1Cc2cc(Cl)cc(Oc3ccccc3Cl)c2N1` displayed a melting point of 196 to 198 °C.

`O=C(Nc1nc(-c2ccccc2)nc2[nH]ccc12)[C@@H]1CCCN1`: the melting point fell in the range of 236 to 238 °C.

`CCCc1cn(C)cc(-c2ccc(Cl)c(C(F)(F)F)c2)c1=O` registered a melting point of 141 to 142 °C.

As to `CSc1ccc(CCOCCCCCC(C)NCC(O)c2ccc(O)c(NS(C)(=O)=O)c2)cc1` (stereo not given), the melting point lay in the range of 133 to 138 °C.

For the compound `C=CC=CCC1=C(C)C(OC(=O)C2C(C=C(C)C)C2(C)C)CC1=O` (stereo not given), the melting point worked out at 57 °C.

Consider `CC(=O)c1ccc(Oc2ccc([N+](=O)[O-])cc2C#N)cc1`, for which the melting point was in the range of 135 to 136 °C.

In turn, `O=C(NCCN1C(=O)C2(COc3cc4c(cc32)OCO4)c2ccccc21)c1ccccc1OC(F)(F)F` (stereo not given) gave a melting point of 183 to 184 °C.

For the compound `Cn1cc(Oc2ccccc2)c(=O)c(-c2ccccc2)c1`, the melting point lay within 176 to 177 °C.

As to `CNC(=O)CCC(=O)c1c(OC)cccc1OC`, the melting point was determined as 134 °C.

On to `CSc1ccc(-c2coc3ccc(-c4nnc([C@H](C)O)o4)cc23)cc1`, for which the melting point was in the range of 164 to 165 °C.

In turn, `CCCCCc1cc2c(cc1C#C/C=C/C(C)=C/C(=O)O)C(C)(C)CCC2(C)C` yielded a melting point of 155 to 156 °C.

Turning to `O=C(Oc1ccccc1)OC1c2nccnc2C(=O)N1c1ccc2ccc(Cl)nc2n1` (stereo not given), the melting point was determined as 270 °C.

`CCc1c(C(=O)OC(C)C)ncc2[nH]c3ccc4nc(C)sc4c3c12` displayed a melting point of 239 to 240 °C.

As for `O=C(N[C@H]1CC[C@H](CCN2CCN(c3nccc4c3OCC4)CC2)CC1)c1ccc(F)cc1`, the melting point came out at 236 °C.

`COc1ccc(C(C)=O)c(CC(=O)O)c1` yielded a melting point of 153 to 155 °C.

`CCC(=O)N1CCC(CC(=O)N2CCC([C@H]3c4ncc(Br)cc4CCc4cc(Cl)cc(Br)c43)CC2)CC1` had a melting point of 124 °C.

`COc1cccc(-c2cc(Cl)cc3c2OC(C(F)(F)F)C(C(=O)O)=C3)c1` (stereo not given) came in with a melting point of 173 to 177 °C.

The compound `Cc1ccc(NC(=O)c2ccc(C[N+]3([O-])CC[N+](C)([O-])CC3)cc2)cc1Nc1nccc(-c2cccnc2)n1` (stereo not given) showed a melting point of 242 to 244 °C.

`Cc1csc(C)c1NCc1nnc(S)n1C` displayed a melting point of 184 to 187 °C.

`O=C(O)CCCCCCCCCCCCCCCBr` returned a melting point of 67 to 69 °C.

With `CCCCCCCCCCCCCCCCCCCCCC(=O)OCC1CC1`, the melting point was found to be 44 °C.

Take `O=C(Nc1ccccc1)c1ccc(F)c([N+](=O)[O-])c1`: the melting point was in the range of 155 to 157 °C.

The compound `CON=C(C1=Nc2ccc(Cl)cc2C(c2ccccc2F)=[N+]([O-])C1)[N+](=O)[O-]` gave a melting point of 207 to 209 °C.

`C=Cn1cc(C(=O)OCC)c(=O)c2cc(F)c(Cl)nc21` gave a melting point of 150 to 151 °C.

Take `CC(=O)OC1CSC(Oc2ccc3nc(C)sc3c2)C(OC(C)=O)C1OC(C)=O` (stereo not given): the melting point is 160 °C.

Regarding `CCCCc1nc2ccc(C)c(C(=O)OCC)c2n1Cc1ccc(-c2ccccc2-c2nnn[nH]2)cc1`, the melting point was 164 to 165 °C.

Compound `CONS(=O)(=O)c1ccc(C(F)(F)F)cc1` gave a melting point of 96 to 97 °C.

`CCn1c(=O)c2c(nc(/C=C/c3ccc(F)c(Br)c3)n2C)n(CC)c1=O`: the melting point is 218 to 219 °C.

As to `CN(C)c1cc(CC(C#N)=CNc2ccccc2)cc(N(C)C)c1C(C)(C)C`, the melting point came to 150 °C.

As for `COc1ccc2c(c1)CCC1C2CCC2(C)C(NCc3cccs3)CCC12` (stereo not given), the melting point fell in the range of 85.5 to 85.9 °C.

On to `Nc1cc(-c2ccc(C(F)(F)F)cc2)no1`, for which the melting point is 142 to 144 °C.

`COC(=O)C1=Cc2cc(-c3ccc(OC)cc3)ccc2SCC1` had a melting point of 117 to 120 °C.

For `N#CCCCNc1cccc(/C=C/c2nc3ccccc3s2)c1`, the melting point lay within 97 to 98 °C.

Compound `COCCN1CCc2ccc(OC)c(Nc3ncc(Cl)c(Nc4ccc(N5CCOCC5)cc4OC)n3)c2CC1` gave a melting point of 68 to 80 °C.

`CC(=O)Nc1cc2c(cc1[N+](=O)[O-])OCCCO2` displayed a melting point of 139 to 140 °C.

In turn, `O=S(=O)(CCCN1CCN(c2ncc(F)cn2)CC1)c1ccc(F)cc1` yielded a melting point of 132 to 134 °C.

`Cc1c(C(O)C(C)(C)C)cc(I)[nH]c1=O` (stereo not given) displayed a melting point of 186 to 187 °C.

For the compound `COc1ccc2cc(OCc3ccccc3)c(C(=O)O)cc2c1`, the melting point was in the range of 177 to 179 °C.

`COc1ccc(-c2nnc(C)n2-c2ccccc2)cc1` came in with a melting point of 140 to 141 °C.

Regarding `Cc1cccc(C2CCCN2S(=O)(=O)c2ccc(Cl)cc2)c1` (racemic), the melting point is 78 °C.

Consider `O=C(NC12CC3CC(CC(C3)C1)C2)c1cc(O)c(O)c(Cl)c1`, for which the melting point lay within 244 to 247 °C.

Consider `Cc1cccc(C(=O)Nc2c[nH]nc2C(=O)NCCC(=O)O)n1`, for which the melting point is 246 to 247 °C.

The compound `CN(c1cccc2cc(-c3ncc(CO)s3)[nH]c12)S(=O)(=O)c1cccs1` yielded a melting point of 201 to 202 °C.

In the case of `CCCCCCCCS(=O)(=O)CCCC(=O)OO`, the melting point lay within 113 to 115 °C.

In turn, `ClC(Cl)=CCOc1cc(Cl)c(OCc2ccc(Cl)nc2)c(Cl)c1` had a melting point of 93.3 °C.

The compound `CCc1c(Sc2ccccc2)n(CC2CC=CC2)c(=O)[nH]c1=O` yielded a melting point of 112 to 113 °C.

The compound `COC(=O)c1ccc2c(CBr)csc2c1` returned a melting point of 108 to 110 °C.

`COC(=O)c1cc2ccnc(NCc3ccccc3)c2[nH]1` showed a melting point of 154 to 155 °C.

`CCc1nc(-c2ccc(OCCC3CCN(c4ccc(C)nn4)CC3)cc2)co1` gave a melting point of 124 °C.

`COC(=O)c1ccc2c(c1CBr)OCO2` returned a melting point of 56 to 58 °C.

The compound `O=C1NCc2cc(-c3cnc4[nH]c(=O)n(CC5CCCCC5)c4n3)ccc21` came in with a melting point of 337 to 339 °C.

Take `O=Cc1cc(O)c(O)c(C=O)c1`: the melting point lay in the range of 192 to 195 °C.

Regarding `COc1ccc(C2CCCCC2)cc1-c1csc(N)n1`, the melting point was 67 °C.

`Cc1oc(-c2ccc(C(F)(F)F)cc2)nc1-c1ccc(-c2cc(Br)c(OC(Cc3ccccc3)C(=O)O)c(Br)c2)cc1` (stereo not given) displayed a melting point of 241 to 243 °C.

Consider `CCCCCC(C)C(C)c1cc(O)c2c3c(c(=O)oc2c1)CSC3` (stereo not given), for which the melting point lay in the range of 165 to 166 °C.

Consider `CCc1nc(OC)c(NC(=O)N2CCN(c3cc(F)cc(F)c3)CC2)cc1C(=O)NC(C)C(=O)Nc1cc(CO)cc(Nc2c3ccccc3nc3ccccc23)c1` (stereo not given), for which the melting point was in the range of 202 to 204 °C.

Take `COC(=O)c1occc1CN1C(=O)c2ccccc2C1=O`: the melting point lay in the range of 140 to 143 °C.

Compound `CCn1c(-c2ccc(OC)c(OC)c2)cc(=Nc2c(C)cc(C)cc2C)n(C)c1=O` returned a melting point of 57 to 61 °C.

`COC(=O)c1csc2nc(N)sc12` displayed a melting point of 221 to 223 °C.

Consider `CCc1cn(C(CC)C(=O)N(C)C)nc1-c1ccccc1` (stereo not given), for which the melting point lay in the range of 77.5 to 79 °C.

In turn, `CC1Oc2ccc(C(F)(F)F)cc2NC1=O` (stereo not given) registered a melting point of 142 to 144 °C.

Take `Cc1nc2c(-c3cccc(N4CCN(CCO)CC4)c3)cnn2c(N)c1-c1ccc(F)c(F)c1`: the melting point lay within 172 to 174 °C.

Compound `C=CCc1cc(Cl)cc2nc(Cc3ccc(OC)c(OC4CCCC4)c3)oc12` returned a melting point of 43 to 44 °C.

With `CCOC(=O)Oc1ccc(S(=O)(=O)N2c3cc(F)c(F)cc3-n3cccc3C2C)cc1` (stereo not given), the melting point lay within 89 to 91 °C.

`COc1cc(NC2=NCC3(CN4CCC3CC4)O2)ncn1` (stereo not given) displayed a melting point of 80 to 85 °C.

On to `CS(=O)(=O)c1ccc(Oc2ccccc2CC(=O)O)cc1`, for which the melting point was 125 to 127 °C.

`COC(=O)c1cc(=O)c2c(C(F)(F)F)c3c(=O)cc(C(=O)OC)[nH]c3c(Cl)c2[nH]1` registered a melting point of 205 to 208 °C.

In the case of `CS(=O)(=O)N(CCCl)N(S(C)(=O)=O)S(C)(=O)=O`, the melting point lay in the range of 154 to 155 °C.

Regarding `CNc1nc(C(C)c2ccc(-c3ccccc3)c(F)c2)c(C(=O)NO)s1` (stereo not given), the melting point was 118 °C.

`COCCOC(=O)NCC(C)(C)N`: the melting point lay within 94 to 96 °C.

In turn, `O=C1OC(=O)C2=C1SCC(c1ccccc1)S2` (stereo not given) registered a melting point of 131 to 133 °C.

For the compound `CCOC(=O)C1=C(CO)NC(SC)=NC1c1ccccc1SC` (stereo not given), the melting point was in the range of 151 to 153 °C.

The compound `OC(COc1ccc(-n2cncn2)cc1)CN1CCN(c2ccc(F)cc2)CC1` (stereo not given) came in with a melting point of 149 to 150 °C.

On to `COC(=O)c1ccccc1Sc1cccc(O)c1`, for which the melting point lay in the range of 77 to 78.5 °C.

Turning to `COc1cc(NC(=O)OC(C)(C)C)c(NC(=O)CC(=O)c2cccc(-n3ccnc3C)c2)cc1-c1ccccc1F`, the melting point lay in the range of 83 to 86 °C.

Regarding `COc1nccc2c(C)c3[nH]c4ccncc4c3cc12`, the melting point was more than 263 °C.

`COc1ccc(-c2cnc(C=NN3CC(=O)NC3=O)o2)cc1` showed a melting point of 291 to 294 °C.

Turning to `Oc1cccc2c1c1ccccc1n2Cc1ccccc1`, the melting point was in the range of 119 to 122 °C.

What is called melting point is the temperature of the solid-liquid transition.
